The nature of data set [1]: Protein binding in mouse plasma assessed as unbound fraction at 2 uM by rapid equilibrium dialysis method. In kind it is ADME, cell-free. A general note: In equilibrium dialysis free small molecules cross a membrane that holds back macromolecules.
Data set [2] can be described thus: Protein binding in rat plasma assessed as unbound fraction at 2 uM by rapid equilibrium dialysis method. In kind it is ADME, cell-free.
Data set [3] in a line: Protein binding in human plasma assessed as unbound fraction at 2 uM by rapid equilibrium dialysis method. In kind it is ADME, cell-free.
Data set [4] in a line: Protein binding in mouse brain assessed as unbound fraction. Type of data set: ADME, tissue-based.
A short description of data set [5]: Aqueous solubility of compound at pH 6.8 by shake flask method. Type of data set: physicochemical. The following applies: buffer.
The nature of data set [6]: Distribution coefficient, log D of compound at pH 7.4 by shake flask method. In kind it is physicochemical. The following applies: octanol/water.
Data set [7] can be described thus: AUC in rat at 1 mg/kg, iv. In kind it is ADME, organism-based. The following applies: in vivo.
Data set [8] can be described thus: Clearance in rat at 1 mg/kg, iv. Type of data set: ADME, organism-based. The following applies: in vivo.
Data set [9] is described as follows: Volume of distribution at steady state in rat at 1 mg/kg, iv. In kind it is ADME, organism-based. The following applies: in vivo, read-out: Vdss.
Data set [10] is described as follows: Half life in rat at 1 mg/kg, iv. The settings on record: in vivo. Type of data set: ADME, organism-based.
A short description of data set [11]: AUC in rat at 5 mg/kg, po. The settings on record: in vivo. In kind it is ADME, organism-based.
The nature of data set [12]: Cmax in rat at 5 mg/kg, po. In kind it is ADME, organism-based. The arrangement: dose 5 mg/kg, route oral. The settings on record: in vivo.
A short description of data set [13]: Tmax in rat at 5 mg/kg, po. Type of data set: ADME, organism-based. The settings on record: in vivo.
Data set [14] in a line: Oral bioavailability in rat at 5 mg/kg. Type of data set: ADME, organism-based. The settings on record: in vivo.
Data set [15] in a line: Unbound brain to plasma concentration ratio in mouse. In kind it is ADME. The following applies: brain and plasma, read-out: K(p,uu,brain).
The nature of data set [16]: Cmax in C57BL/6 mouse at 10 mg/kg, po. In kind it is ADME, organism-based. Also on record: dose 10 mg/kg, route oral. The settings on record: in vivo.
Data set [17] in a line: fCmax In C57BL/6 mouse at 10 mg/kg, po. Type of data set: ADME, organism-based. The following applies: in vivo.
A short description of data set [18]: Efflux ratio of apparent permeability in MDCK-MDR1 cells. The following applies: dog. Type of data set: ADME, cell-based, Canis lupus familiaris.

Values after ≈ are worked out from the molar mass of the structure shown.

As to `CCn1nnc2c(C)c([C@@H](CC(=O)O)c3ccc4c(c3)CN(C(=O)c3c(C)c(C)cc(C)c3C)CC4)ccc21`, the fraction unbound (in general, the share of the substance not bound to proteins or other matrix) at 2 µM in [1] is 0.00505; in data set [2], 0.00568; in [3], 0.00708. In data set [4], the fraction unbound was 0.0211. Besides, the thermodynamic solubility (as a rule, solubility found after equilibrating the solid with the medium) in [5] was found to be 29.5 µg/mL (≈ 56.2 µM). Also, in [6], the logD (as a rule, the decadic logarithm of the distribution of all forms, ionised or not, between an organic phase and buffer at a given pH) stood at 1.39. The AUC (commonly concentration integrated over time) was determined as 2510 ng·h/mL in data set [7] and 2720 ng·h/mL in data set [11]. Further, the clearance – broadly, the volume of plasma or blood freed of the substance per unit of time – in data set [8] came to 6.16 mL/min/kg. Moreover, the Vd in data set [9] turned out to be 0.707 L/kg. The half-life (in general, the time needed for the level to fall by half in the phase considered) in data set [10] was 226 min. For the same compound, the values for the Cmax in [12] and in [16] were 958 ng/mL and 6.7 µM, respectively. In addition, the Tmax (commonly the time from dosing to the highest level) in data set [13] was found to be 55.2 min. The bioavailability (as a rule, the share of a dose that reaches the circulation, judged against a reference dose that is usually intravenous) in data set [14] was 20%. Moreover, the Kp uu in data set [15] turned out to be 0.04. In [17], this compound registered a fCmax of 33 nM.

As for `CCn1nnc2c(C)c([C@H](c3ccc4c(c3)CN(C(=O)c3c(C)c(C)cc(C)c3C)CC4)C(C)(C)C(=O)O)ccc21`, in [18], the efflux ratio (commonly the permeability from basolateral to apical divided by that in the opposite direction, in the common usage) stood at 104.

These data come from ChEMBL document CHEMBL4610043, “Design, synthesis and identification of novel, orally bioavailable non-covalent Nrf2 activators” (Bioorg Med Chem Lett, 2020).
